Data taken from patent US5200409A, “Composition and use of substituted 1,3-dithiolo-and 1,4-dithiinoquinoxalines as an antimicrobial” (The Dow Chemical Company, priority 1992, dated 1993).
≈ marks a conversion by molar mass, not a printed value. Read-outs that look alike come from different tables or passages of the source.

What was measured:
Candida albicans (Ca) = assay: Minimum inhibitory concentration (MIC) in malt yeast agar; format: cell-based, Candida albicans ATCC 10231; conditions: malt yeast agar; 30° C.; 48 hours for yeast; read-out: Minimum Inhibitory Concentration, Ca
Outline: (§1)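 Compound dispersed in malt yeast agar at final 500, 250, 100, 50, 25, 10, 5, 2.5, 1.0 and 0 ppm (from 1% acetone/water solution); plates dried 24 h, then inoculated with saline/octylphenoxy polyethoxy ethanol suspensions of 7-day cultures diluted 1:9. Incubated at 30° C; read at 48 h for yeast, 72 h for fungi.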

Aspergillus niger (An) = assay: as above; format: cell-based, Aspergillus niger ATCC 16404; conditions: malt yeast agar; 30° C.; 72 hours for fungi; read-out: Minimum Inhibitory Concentration, An
Outline: (§2)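 Compound from a 1% acetone/water solution was mixed into molten malt yeast agar (48° C) at 500, 250, 100, 50, 25, 10, 5, 2.5, 1.0 and 0 ppm and poured into plates. Plates dried 24 hours, were inoculated with saline/surfactant spore suspensions diluted 1:9 via replicator, and incubated at 30° C for 72 hours.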

[1] = system: Enterobacter aerogenes (Ea); assay: Minimum inhibitory concentration (MIC) in nutrient agar; format: cell-based, Enterobacter aerogenes ATCC 13048; conditions: Klebsiella aerogenes
Outline: (§3)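 Nutrient agar, pH 6.8 and 8.2; compound incorporated at 48° C, final 1.0–500 ppm; plates dried 24 h; Steer's replicator inoculum 10^8 CFU/ml from 24 h broth cultures (30° C, shaken); incubation 30° C, 48 h; endpoint = prevention of growth.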

[2] = system: Penicillium chrysogenum (Pc); assay: Minimum inhibitory concentration (MIC) in malt yeast agar; format: cell-based, Penicillium chrysogenum ATCC 9480; conditions: read-out: Minimum Inhibitory Concentration, Pc
Outline: as §2

[3] = system: Aureobasidium pullulan (Ap); assay: as above; format: cell-based, Aureobasidium pullulan ATCC 16622; conditions: read-out: Minimum Inhibitory Concentration, Ap
Outline: as §2

Trichoderma viride (Tv) = assay: as above; format: cell-based, Trichoderma viride ATCC 8678; conditions: malt yeast agar; 30° C.; 72 hours for fungi; read-out: Minimum Inhibitory Concentration, Tv
Outline: as §2

Proteus vulgaris (Pv) = assay: Minimum inhibitory concentration (MIC) in nutrient agar; format: cell-based, Proteus vulgaris ATCC 881
Outline: as §3

Bacillus subtilis (Bs) = assay: as above; format: cell-based, Bacillus subtilis ATCC 8473
Outline: as §3

Escherichia coli (Ec) = assay: as above; format: cell-based, Escherichia coli ATCC 11229
Outline: as §3

Fusarium oxysporum (Fo) = assay: Minimum inhibitory concentration (MIC) in malt yeast agar; format: cell-based, Fusarium oxysporum ATCC 48112; conditions: malt yeast agar; 30° C.; 72 hours for fungi; read-out: Minimum Inhibitory Concentration, Fo
Outline: as §2

[4] = system: Pseudomonas aeruginosa (PRD-10); assay: Minimum inhibitory concentration (MIC) in nutrient agar; format: cell-based, Pseudomonas aeruginosa ATCC 15442
Outline: as §3

[5] = system: Staphylococcus aureus (Sa); assay: as above; format: cell-based, Staphylococcus aureus ATCC 6538
Outline: as §3

[6] = system: Saccharomyces cerevisiae (Sc); assay: Minimum inhibitory concentration (MIC) in malt yeast agar; format: cell-based, Saccharomyces cerevisiae ATCC 4105; conditions: malt yeast agar, 30° C., 48 hours for yeast, read-out: Minimum Inhibitory Concentration, Sc
Outline: as §1

[7] = system: Klebsiella pneumoniae (Kp); assay: Minimum inhibitory concentration (MIC) in nutrient agar; format: cell-based, Klebsiella pneumoniae ATCC 8308
Outline: as §3

[8] = system: Salmonella choleraesuis (Sc); assay: as above; format: cell-based, Salmonella choleraesuis ATCC 10708; conditions: Salmonella enterica
Outline: as §3

[9] = system: Pseudomonas aeruginosa (Pa); assay: as above; format: cell-based, Pseudomonas aeruginosa ATCC 10145; conditions: 48 hours
Outline: as §3

[10] = 48 h, pH 6.8, read-out: Minimum Inhibitory Concentration, Ea
[11] = 48 h, pH 8.2, read-out: Minimum Inhibitory Concentration, Ea
[12] = malt yeast agar, 30° C., 72 hours for fungi
[13] = malt yeast agar, 30° C., 48 hours for yeast and 72 hours for fungi
[14] = 48 h, pH 8.2, read-out: Minimum Inhibitory Concentration, Pv
[15] = pH 6.8, nutrient agar, 30° C., 48 hours, read-out: Minimum Inhibitory Concentration, Pv
[16] = pH 6.8, nutrient agar, 30° C., 48 hours, read-out: Minimum Inhibitory Concentration, Bs
[17] = pH 8.2, nutrient agar, 30° C., 48 hours, read-out: Minimum Inhibitory Concentration, Bs
[18] = 48 h, pH 8.2, read-out: Minimum Inhibitory Concentration, Ec
[19] = 48 h, pH 6.8, read-out: Minimum Inhibitory Concentration, PRD
[20] = 48 h, pH 8.2, read-out: Minimum Inhibitory Concentration, PRD
[21] = pH 6.8, nutrient agar, 30° C., 48 hours, read-out: Minimum Inhibitory Concentration, Sa
[22] = pH 8.2, nutrient agar, 30° C., 48 hours, read-out: Minimum Inhibitory Concentration, Sa
[23] = 48 h, pH 6.8, read-out: Minimum Inhibitory Concentration, Kp
[24] = 48 h, pH 8.2, read-out: Minimum Inhibitory Concentration, Kp
[25] = 48 h, pH 8.2, read-out: Minimum Inhibitory Concentration, Sc
[26] = pH 6.8, nutrient agar, 30° C., 48 hours, read-out: Minimum Inhibitory Concentration, Sc
[27] = 48 h, pH 6.8, read-out: Minimum Inhibitory Concentration, Ec
[28] = 48 h, pH 6.8, read-out: Minimum Inhibitory Concentration, Pv
[29] = 48 h, pH 6.8, read-out: Minimum Inhibitory Concentration, Bs
[30] = 48 h, pH 8.2, read-out: Minimum Inhibitory Concentration, Bs
[31] = 48 h, pH 8.2, read-out: Minimum Inhibitory Concentration, Sa
[32] = pH 6.8, nutrient agar, 30° C., 48 hours, read-out: Minimum Inhibitory Concentration, Kp
[33] = 48 h, pH 6.8, read-out: Minimum Inhibitory Concentration, Sc

| SMILES | MIC (Candida albicans (Ca)) [µg/mL] | MIC (Aspergillus niger (An)) [µg/mL] | MIC [1, 10] [µg/mL] | MIC [1, 11] [µg/mL] | MIC [2, 12] [µg/mL] | MIC [3, 13] [µg/mL] | MIC (Trichoderma viride (Tv)) [µg/mL] | MIC (Proteus vulgaris (Pv); [14]) [µg/mL] | MIC (Escherichia coli (Ec); [18]) [µg/mL] | MIC (Fusarium oxysporum (Fo)) [µg/mL] | MIC [4, 19] [µg/mL] | MIC [4, 20] [µg/mL] | MIC [5, 21] [µg/mL] | MIC [6] [µg/mL] | MIC [7, 24] [µg/mL] | MIC [8, 25] [µg/mL] | MIC ([9]; pH 6.8, 30° C.) [µg/mL] | MIC ([9]; pH 8.2, 30° C.) [µg/mL] | MIC (Escherichia coli (Ec); [27]) [µg/mL] | MIC (Proteus vulgaris (Pv); [28]) [µg/mL] | further results |
| --- | --- | --- | --- | --- | --- | --- | --- | --- | --- | --- | --- | --- | --- | --- | --- | --- | --- | --- | --- | --- | --- |
| COC(=O)c1ccc2nc3c(nc2c1)SC(C#N)=C(C#N)S3 [I, 7-carbomethoxy-1,4-dithiino-(2,3-b)-quinoxaline-2,3-dicarbonitrile] | < 10 | < 10 | > 500 | > 500 | < 10 | < 10 | 25 (≈ 76.6 µM) | > 500 | > 500 | < 10 | 500 (≈ 1530 µM) | > 500 | 25 (≈ 76.6 µM) | < 10 | > 500 | > 500 | 500 (≈ 1530 µM) | > 500 |  |  | MIC (Proteus vulgaris (Pv); [15]): 100 µg/mL (≈ 306 µM); MIC (Bacillus subtilis (Bs); [16]): < 10 µg/mL; MIC (Bacillus subtilis (Bs); [17]): 50 µg/mL (≈ 153 µM); MIC (Escherichia coli (Ec); pH 6.8, nutrient agar, 30° C., 48 hours, read-out: Minimum Inhibitory Concentration, Ec): 100 µg/mL (≈ 306 µM); MIC [5, 22]: 100 µg/mL (≈ 306 µM); MIC [7, 23]: 50 µg/mL (≈ 153 µM); MIC [8, 26]: 100 µg/mL (≈ 306 µM) |
| N#CC1=C(C#N)Sc2nc3cc(C(F)(F)F)ccc3nc2S1 [K, 7-trifluoromethyl-1,4-dithiino-(2,3-b)-quinoxaline-2,3-dicarbonitrile] | < 10 | 25 (≈ 74.3 µM) |  | > 500 | 25 (≈ 74.3 µM) | < 10 | 25 (≈ 74.3 µM) | > 500 | > 500 | 25 (≈ 74.3 µM) |  | > 500 | 25 (≈ 74.3 µM) | < 10 | > 500 | > 500 |  | > 500 | 50 (≈ 149 µM) |  | MIC ([1]; pH 6.8, nutrient agar, 30° C., 48 hours, read-out: Minimum Inhibitory Concentration, Ea): 250 µg/mL (≈ 743 µM); MIC (Proteus vulgaris (Pv); [15]): 50 µg/mL (≈ 149 µM); MIC (Bacillus subtilis (Bs); [16]): < 10 µg/mL; MIC (Bacillus subtilis (Bs); [17]): 100 µg/mL (≈ 297 µM); MIC ([4]; pH 6.8, nutrient agar, 30° C., 48 hours, read-out: Minimum Inhibitory Concentration, PRD): 250 µg/mL (≈ 743 µM); MIC [5, 22]: 100 µg/mL (≈ 297 µM); MIC [7, 23]: 50 µg/mL (≈ 149 µM); MIC [8, 26]: 50 µg/mL (≈ 149 µM) |
| Cc1ccc2nc3c(nc2c1)SC(=C(C#N)C#N)S3 [N, 6-methyl-1,3-dithiolo-(4,5-b)-quinoxaline-2-ylidene-propanedinitrile] | > 500 | 500 (≈ 1770 µM) | > 500 | > 500 | 500 (≈ 1770 µM) | 500 (≈ 1770 µM) | > 500 | > 500 | > 500 | > 500 | > 500 | > 500 | > 500 | > 500 | > 500 | > 500 | > 500 | > 500 | > 500 | > 500 | MIC (Bacillus subtilis (Bs); [29]): > 500 µg/mL; MIC (Bacillus subtilis (Bs); [30]): > 500 µg/mL; MIC [5, 31]: > 500 µg/mL; MIC [7, 32]: > 500 µg/mL; MIC [8, 33]: 500 µg/mL (≈ 1770 µM) |
| N#CC(C#N)=C1Sc2nc3cc(Cl)c([N+](=O)[O-])cc3nc2S1 [Q, 6-chloro-7-nitro-1,3-dithiolo-(4,5-b)-quinoxaline-2-ylidene-propanedinitrile] | 500 (≈ 1440 µM) | 500 (≈ 1440 µM) | > 500 | > 500 | 500 (≈ 1440 µM) |  | > 500 | > 500 | > 500 | > 500 | > 500 | > 500 | > 500 | 500 (≈ 1440 µM) | > 500 | > 500 | > 500 | > 500 | > 500 | > 500 | MIC [3]: 50 µg/mL (≈ 144 µM); MIC (Bacillus subtilis (Bs); [29]): > 500 µg/mL; MIC (Bacillus subtilis (Bs); [30]): > 500 µg/mL; MIC [5, 31]: > 500 µg/mL; MIC [7, 32]: > 500 µg/mL; MIC [8, 33]: > 500 µg/mL |
| Cc1cc2nc3c(nc2cc1[N+](=O)[O-])SC(=C(C#N)C#N)S3 [R, 6-nitro-7-methyl-1,3-dithiolo-(4,5-b)-quinoxaline-2-ylidene-propanedinitrile] | > 500 | 100 (≈ 305 µM) | > 500 | > 500 |  | 500 (≈ 1530 µM) | > 500 | > 500 | > 500 | > 500 | > 500 | > 500 | > 500 | 500 (≈ 1530 µM) | > 500 | > 500 | > 500 | > 500 | > 500 | > 500 | MIC ([2]; 72 h): 50 µg/mL (≈ 153 µM); MIC (Bacillus subtilis (Bs); [29]): > 500 µg/mL; MIC (Bacillus subtilis (Bs); [30]): > 500 µg/mL; MIC [5, 31]: > 500 µg/mL; MIC [7, 32]: > 500 µg/mL; MIC [8, 33]: > 500 µg/mL |
